Source: patent publication US20230295113A1, “NLRP3 MODULATORS” (ZOMAGEN BIOSCIENCES LTD, priority 2022, published 2023)

Tested on: IL-1b
Experiment: Human Monocyte IL-1b Assay
Type: cell-based
Settings: fresh human whole blood, compound 0.5 h, 100 ng/mL LPS 3.5 h at 37° C., 5 mM ATP 45 min, IL-1b in supernatant by ELISA
Protocol: Example 46: Human Monocyte IL-1b Assay
Serially diluted testing compounds were incubated with […] of fresh human whole blood for 0.5 hours. Cells were primed with 100 ng/mL lipopolysaccharide (LPS) for 3.5 hours at 37° C. followed by stimulation with 5 mM ATP for an additional 45 minutes. The concentration of IL-1b concentration in the supernatant was determined with commercially available ELISA kits. Negative controls are wells without stimulation, while positive controls are wells with stimulation but only DMSO without compounds added. After background subtraction, compound treatment wells were then normalized to the positive controls for IC50 calculations.

Q: With CN1CCC[C@@H]([C@@H](O)c2nnc(-c3ccc(C(F)(F)F)cc3O)c3c2CCC3)C1 (racemic) [Compound 43A, 2-(4-((R)-hydroxy((R)-1-methylpiperidin-3-yl)methyl)-6,7-dihydro-5H-cyclopenta[d]pyridazin-1-yl)-5-(trifluoromethyl)phenol] as the compound, how does the IC50 (Homo sapiens, Monocyte) read?
A: The IC50 was less than 500 nM.

Q: Which IC50 does the source give for CN1CCC[C@@H]([C@@H](O)c2nnc(-c3ccc(C(F)(F)F)cc3O)c3c2CCC3)C1 (racemic) [Compound 43B, 2-(4-((R/S)-hydroxy((R/S)-1-methylpiperidin-3-yl)methyl)-6,7-dihydro-5H-cyclopenta[d]pyridazin-1-yl)-5-(trifluoromethyl)phenol] here?
A: Its IC50 is 500 to 3000 nM.

Q: How did the IC50 turn out when CN1CCC[C@@H]([C@@H](O)c2nnc(-c3ccc(C(F)(F)F)cc3O)c3c2CCC3)C1 (racemic) [Compound 44, 2-(4-((R)-hydroxy((R)-1-methylpiperidin-3-yl)methyl)-6,7-dihydro-5H-cyclopenta[d]pyridazin-1-yl)-5-(trifluoromethyl)phenol] was run?
A: The IC50 was less than 500 nM.

Q: With Cc1c(-c2ccc(C(F)(F)F)cc2O)nnc(C(O)C2CCCN(C)C2)c1C (centres unmarked) [Compound 1, 2-(6-(hydroxy(1-methylpiperidin-3-yl)methyl)-4,5-dimethylpyridazin-3-yl)-5-(trifluoromethyl)phenol] as the compound, how does the IC50 (Homo sapiens, Monocyte) read?
A: The IC50 was 500 to 3000 nM.

Q: With Cc1c(C(=O)C2CCCN(C)C2)nnc(-c2ccc(C(F)(F)F)cc2O)c1C (centres unmarked) [Compound 2, (6-(2-hydroxy-4-(trifluoromethyl)phenyl)-4,5-dimethylpyridazin-3-yl)(1-methylpiperidin-3-yl)methanone] as the compound, how does the IC50 (Homo sapiens, Monocyte) read?
A: The IC50 was 500 to 3000 nM.

Q: Which IC50 (Homo sapiens, Monocyte) does the source give for Cc1c(-c2ccc(C(F)(F)F)cc2O)nnc(C(C)(O)C2CCCN(C)C2)c1C (centres unmarked) [Compound 3, 2-(6-(1-hydroxy-1-(1-methylpiperidin-3-yl)ethyl)-4,5-dimethylpyridazin-3-yl)-5-(trifluoromethyl)phenol] here?
A: The IC50 was less than 500 nM.

Q: Which IC50 (Homo sapiens, Monocyte) does the source give for Cc1c(-c2ccc(C(F)(F)F)cc2O)nnc(C(F)c2cccnc2)c1C (centres unmarked) [Compound 4, 2-(6-(fluoro(pyridin-3-yl)methyl)-4,5-dimethylpyridazin-3-yl)-5-(trifluoromethyl)phenol] here?
A: Its IC50 is 3000 to 10000 nM.

Q: Cc1c(CC2CCCN(C)C2)nnc(-c2ccc(C(F)(F)F)cc2O)c1C (centres unmarked) [Compound 5, 2-(4,5-dimethyl-6-((1-methylpiperidin-3-yl)methyl)pyridazin-3-yl)-5-(trifluoromethyl)phenol] was tested. Which IC50 (Homo sapiens, Monocyte) did it give?
A: The IC50 was less than 500 nM.

Q: Which IC50 (Homo sapiens, Monocyte) does the source give for COC(c1nnc(-c2ccc(C(F)(F)F)cc2O)c(C)c1C)C1CCCN(C)C1 (centres unmarked) [Compound 6, 2-(6-(methoxy(1-methylpiperidin-3-yl)methyl)-4,5-dimethylpyridazin-3-yl)-5-(trifluoromethyl)phenol] here?
A: Its IC50 is 500 to 3000 nM.

Q: How did the IC50 (Homo sapiens, Monocyte) turn out when Cc1cc(O)c(-c2ccc(CC3CCCN(C)C3)nn2)c(F)c1 (centres unmarked) [Compound 7, 3-fluoro-5-methyl-2-(6-((1-methylpiperidin-3-yl)methyl)pyridazin-3-yl)phenol] was run?
A: The IC50 was less than 500 nM.

Q: How did the IC50 (Homo sapiens, Monocyte) turn out when Cc1cc(O)c(-c2ccc(C(O)C3CCCN(C)C3)nn2)c(F)c1 (centres unmarked) [Compound 8, 3-fluoro-2-(6-(hydroxy(1-methylpiperidin-3-yl)methyl)pyridazin-3-yl)-5-methylphenol] was run?
A: Its IC50 is less than 500 nM.

Q: How did the IC50 (Homo sapiens, Monocyte) turn out when CN1CCCC(C(O)c2nnc(-c3ccc(C(F)(F)F)cc3O)c3ccccc23)C1 (centres unmarked) [Compound 9, 2-(4-(hydroxy(1-methylpiperidin-3-yl)methyl)phthalazin-1-yl)-5-(trifluoromethyl)phenol] was run?
A: The IC50 was less than 500 nM.

Q: With Cc1cc(C(O)c2cccnc2)nnc1-c1ccc(C(F)(F)F)cc1O (centres unmarked) [Compound 10, 2-(6-(hydroxy(pyridin-3-yl)methyl)-4-methylpyridazin-3-yl)-5-(trifluoromethyl)phenol] as the compound, how does the IC50 (Homo sapiens, Monocyte) read?
A: The IC50 was 3000 to 10000 nM.

Q: For Cc1cc(C(O)C2CCCN(C)C2)nnc1-c1ccc(C(F)(F)F)cc1O (centres unmarked) [Compound 11, 2-(6-(hydroxy(1-methylpiperidin-3-yl)methyl)-4-methylpyridazin-3-yl)-5-(trifluoromethyl)phenol], which IC50 (Homo sapiens, Monocyte) is on record?
A: The IC50 was less than 500 nM.

Q: How did the IC50 (Homo sapiens, Monocyte) turn out when Cc1cc(-c2ccc(C(F)(F)F)cc2O)nnc1C(O)C1CCCN(C)C1 (centres unmarked) [Compound 12, 2-(6-(hydroxy(1-methylpiperidin-3-yl)methyl)-5-methylpyridazin-3-yl)-5-(trifluoromethyl)phenol] was run?
A: Its IC50 is 500 to 3000 nM.

Q: For Cc1cc(C(=O)c2cccnc2)nnc1-c1ccc(C(F)(F)F)cc1O [Compound 13, (6-(2-hydroxy-4-(trifluoromethyl)phenyl)-5-methylpyridazin-3-yl)(pyridin-3-yl)methanone], which IC50 (Homo sapiens, Monocyte) is on record?
A: The IC50 was 500 to 3000 nM.

Q: With Cc1cc(C(=O)C2CCCN(C)C2)nnc1-c1ccc(C(F)(F)F)cc1O (centres unmarked) [Compound 14, (6-(2-hydroxy-4-(trifluoromethyl)phenyl)-5-methylpyridazin-3-yl)(1-methylpiperidin-3-yl)methanone] as the compound, how does the IC50 (Homo sapiens, Monocyte) read?
A: Its IC50 is less than 500 nM.

Q: Which IC50 (Homo sapiens, Monocyte) does the source give for Cc1cc(C(C)(O)C2CCCN(C)C2)nnc1-c1ccc(C(F)(F)F)cc1O (centres unmarked) [Compound 15, 2-(6-(1-hydroxy-1-(1-methylpiperidin-3-yl)ethyl)-4-methylpyridazin-3-yl)-5-(trifluoromethyl)phenol] here?
A: Its IC50 is less than 500 nM.

Q: How did the IC50 (Homo sapiens, Monocyte) turn out when Cc1cc(C(=NO)C2CCCN(C)C2)nnc1-c1ccc(C(F)(F)F)cc1O (centres unmarked) [Compound 16, (6-(2-hydroxy-4-(trifluoromethyl)phenyl)-5-methylpyridazin-3-yl)(1-methylpiperidin-3-yl)methanone oxime] was run?
A: The IC50 was less than 500 nM.

Q: How did the IC50 (Homo sapiens, Monocyte) turn out when Cc1cc([C@@H](O)[C@@H]2CCCN(C)C2)nnc1-c1ccc(C(F)(F)F)cc1O [Compound 17A, 2-(6-((S)-hydroxy((R)-1-methylpiperidin-3-yl)methyl)-4-methylpyridazin-3-yl)-5-(trifluoromethyl)phenol] was run?
A: Its IC50 is less than 500 nM.

Q: With Cc1cc([C@H](O)[C@@H]2CCCN(C)C2)nnc1-c1ccc(C(F)(F)F)cc1O [Compound 17B, 2-(6-((R)-hydroxy((R)-1-methylpiperidin-3-yl)methyl)-4-methylpyridazin-3-yl)-5-(trifluoromethyl)phenol] as the compound, how does the IC50 (Homo sapiens, Monocyte) read?
A: The IC50 was less than 500 nM.

Q: With Cc1cc([C@H](O)[C@H]2CCCN(C)C2)nnc1-c1ccc(C(F)(F)F)cc1O [Compound 17C, 2-(6-((R)-hydroxy((S)-1-methylpiperidin-3-yl)methyl)-4-methylpyridazin-3-yl)-5-(trifluoromethyl)phenol] as the compound, how does the IC50 (Homo sapiens, Monocyte) read?
A: The IC50 was less than 500 nM.

Q: For Cc1cc([C@@H](O)[C@H]2CCCN(C)C2)nnc1-c1ccc(C(F)(F)F)cc1O [Compound 17D, 2-(6-((S)-hydroxy((S)-1-methylpiperidin-3-yl)methyl)-4-methylpyridazin-3-yl)-5-(trifluoromethyl)phenol], which IC50 (Homo sapiens, Monocyte) is on record?
A: The IC50 was 500 to 3000 nM.

Q: Which IC50 (Homo sapiens, Monocyte) does the source give for [2H][C@@](O)(c1cc(C)c(-c2ccc(C(F)(F)F)cc2O)nn1)[C@@H]1CCCN(C)C1 [Compound 18, 2-(6-((S)-hydroxy((R)-1-methylpiperidin-3-yl)methyl-d)-4-methylpyridazin-3-yl)-5-(trifluoromethyl)phenol] here?
A: Its IC50 is less than 500 nM.

Q: With Cc1cc(C)c(-c2ccc(C(O)C3CCCN(C)C3)nn2)c(O)c1 (centres unmarked) [Compound 19, 2-(6-(hydroxy(1-methylpiperidin-3-yl)methyl)pyridazin-3-yl)-3,5-dimethylphenol] as the compound, how does the IC50 (Homo sapiens, Monocyte) read?
A: The IC50 was less than 500 nM.

Q: For Cc1cc(C(F)(F)F)cc(O)c1-c1ccc(C(O)C2CCCN(C)C2)nn1 (centres unmarked) [Compound 20, 2-(6-(hydroxy(1-methylpiperidin-3-yl)methyl)pyridazin-3-yl)-3-methyl-5-(trifluoromethyl)phenol], which IC50 (Homo sapiens, Monocyte) is on record?
A: Its IC50 is less than 500 nM.

Q: For Oc1cc(C(F)(F)F)ccc1-c1ccc(CC2(O)CCCNC2)nn1 (centres unmarked) [Compound 21, 3-((6-(2-hydroxy-4-(trifluoromethyl)phenyl)pyridazin-3-yl)methyl)piperidin-3-ol], which IC50 (Homo sapiens, Monocyte) is on record?
A: The IC50 was 3000 to 10000 nM.

Q: Which IC50 (Homo sapiens, Monocyte) does the source give for CC(c1nnc(-c2ccc(C(F)(F)F)cc2O)c2ccccc12)C1CCCNC1 (centres unmarked) [Compound 22, 2-(4-(1-(piperidin-3-yl)ethyl)phthalazin-1-yl)-5-(trifluoromethyl)phenol] here?
A: The IC50 was less than 500 nM.

Q: For CN1CCC(=O)C(C(O)c2ccc(-c3ccc(C(F)(F)F)cc3O)nn2)C1 (centres unmarked) [Compound 23, 3-(hydroxy(6-(2-hydroxy-4-(trifluoromethyl)phenyl)pyridazin-3-yl)methyl)-1-methylpiperidin-4-one], which IC50 (Homo sapiens, Monocyte) is on record?
A: The IC50 was 3000 to 10000 nM.

Q: For COc1cc(C(F)(F)F)ccc1-c1nnc([C@H](O)[C@@H]2CCCN(C)C2)cc1C [Compound 24, (R)-(6-(2-methoxy-4-(trifluoromethyl)phenyl)-5-methylpyridazin-3-yl)((R)-1-methylpiperidin-3-yl)methanol], which IC50 (Homo sapiens, Monocyte) is on record?
A: The IC50 was less than 500 nM.

Q: Cc1cc([C@H](O)[C@@H]2CCCN(C3CC3)C2)nnc1-c1ccc(C(F)(F)F)cc1O [Compound 25, 2-(6-((R)-((R)-1-cyclopropylpiperidin-3-yl)(hydroxy)methyl)-4-methylpyridazin-3-yl)-5-(trifluoromethyl)phenol] was tested. Which IC50 (Homo sapiens, Monocyte) did it give?
A: Its IC50 is less than 500 nM.

Q: Cc1cc(C(O)[C@@H]2CCN(C)C2)nnc1-c1ccc(C(F)(F)F)cc1O (stereo partly drawn) [Compound 26, 2-(6-(hydroxy((R)-1-methylpyrrolidin-3-yl)methyl)-4-methylpyridazin-3-yl)-5-(trifluoromethyl)phenol] was tested. Which IC50 (Homo sapiens, Monocyte) did it give?
A: The IC50 was less than 500 nM.

Q: With Cc1cc([C@H](O)[C@]2(C)CCCN(C)C2)nnc1-c1ccc(C(F)(F)F)cc1O [Compound 27A, 2-(6-((R)-((R)-1,3-dimethylpiperidin-3-yl)(hydroxy)methyl)-4-methylpyridazin-3-yl)-5-(trifluoromethyl)phenol] as the compound, how does the IC50 (Homo sapiens, Monocyte) read?
A: The IC50 was 500 to 3000 nM.

Q: How did the IC50 (Homo sapiens, Monocyte) turn out when Cc1cc([C@@H](O)[C@]2(C)CCCN(C)C2)nnc1-c1ccc(C(F)(F)F)cc1O [Compound 27B, 2-(6-((S)-((R)-1,3-dimethylpiperidin-3-yl)(hydroxy)methyl)-4-methylpyridazin-3-yl)-5-(trifluoromethyl)phenol] was run?
A: The IC50 was 3000 to 10000 nM.

Q: How did the IC50 (Homo sapiens, Monocyte) turn out when Cc1cc([C@H](O)C2CN3CCC2CC3)nnc1-c1ccc(C(F)(F)F)cc1O (stereo partly drawn) [Compound 28A, 2-(6-((1R)-hydroxy(quinuclidin-3-yl)methyl)-4-methylpyridazin-3-yl)-5-(trifluoromethyl)phenol] was run?
A: Its IC50 is less than 500 nM.
